Test results as given in patent US20250064891A1, “HOST PROTEASES ESSENTIAL FOR PARAINFLUENZA SPREAD IN THE HUMAN LUNG: POTENTIAL TARGETS FOR ANTIVIRAL INTERVENTIONS” (The Trustees of Columbia University in the City of New York, priority 2022, published 2025).
“Also recorded” adds a separate entry of the source.

Columns and labels:
HPIV3 [1] = assay: HPIV3 spread in intranasally infected cotton rats, viral titer of nasal tissue by plaque assay; conditions: intranasal nafamostat 3 mg/kg body weight daily, sacrificed 3 days after infection (FIG. 5)
Procedure: Viral titer (LogTCID50 per gram of nasal tissue) was determined by plaque assay. Values are means and SEM.

[2] = tested on: serine proteases, such as TMPRSS2; assay: Inhibition of serine proteases (statement without method)
HPIV3 F = conditions: for HPIV3 F cleavage: Calu-3 cells and HAE inoculated with HPIV-3 F E108 or F K108, treated after inoculation (FIG. 3); for HPIV3 F E108 (F0) cleavage: Western blot of Calu-3 cell media (FIG. 8B)
Procedure: (A) Calu-3 cells and (B) HAE were inoculated with HPIV-3 F E108 (left) or HPIV-3 F K108 (right). After inoculation, cells were treated with the indicated concentrations of aprotinin or leupeptin. HPIV3 infected Calu-3 cell culture media and HAE apical wash resolved by reducing SDS-PAGE and immunoblotted with anti-HPIV3 F antibody. HPIV3 titer in cell culture media and HAE apical washes 3 days after infection. Values are means and SEM from 1-3 biological replicates.
Virions released by the infected cells into the media were titered. B) Western blotting for HPIV3 F in Calu-3 cell media.

HPIV3 [3] = assay: HPIV3 titer (infectious viral particles) released by infected Calu-3 cells / HAE treated with protease inhibitor; type: cell-based, human parainfluenza virus 3 (HPIV3); conditions: for production of infectious viral particles / viral spread (HPIV3 titer): Calu-3 cell culture media and HAE apical washes 3 days after infection (FIG. 3); for viral titer: virions released by infected Calu-3 cells into the media (FIG. 8A)
From the text: Values are means and SEM from one biological replicate.

Row | Compound | HPIV3 spread in vivo (viral titer, LogTCID50 per gram of nasal tissue) (HPIV3 [1]) | inhibition of serine proteases, such as TMPRSS2 [2] | HPIV3 F cleavage (HPIV3 F) | HPIV3 F E108 (F0) cleavage (HPIV3 F) | production of infectious viral particles / viral spread (HPIV3 titer) (HPIV3 [3]) | viral titer (HPIV3 [3])
1 | N=C(N)c1ccc2cc(OC(=O)c3ccc(N=C(N)N)cc3)ccc2c1 [Nafamostat] | reduced HPIV3 spread in nasal tissue of cotton rats; also recorded: blocks HPIV3 spread in vivo | – | – | – | – | –
2 | CN(C)C(=O)COC(=O)Cc1ccc(OC(=O)c2ccc(NC(=N)N)cc2)cc1 [camostat] | – | effective inhibitors of serine proteases | – | – | – | –
3 | CC(=O)N[C@@H](CC(C)C)C(=O)N[C@@H](CC(C)C)C(=O)N[C@H](C=O)CCCNC(=N)N [leupeptin] | – | effective inhibitors of serine proteases | block HPIV3 F cleavage | reduced HPIV3 F E108 cleavage | inhibited viral spread; also recorded: reduces production of infectious viral particles | reduced viral titer
4 | aprotinin | – | effective inhibitors of serine proteases | block HPIV3 F cleavage | reduced HPIV3 F E108 cleavage; also recorded: significant reduction in F0 cleavage | inhibited viral spread; also recorded: reduces production of infectious viral particles | reduced viral titer; also recorded: dose-dependent reduction in viral titer
